Consider 1 compound from EP4817688A2, “DEGRADING PKCß1 TO TREAT CANCER” (Mayo Foundation for Medical Education and Research, priority 2020, dated 2022).

SMILES strings stand for the structures.

What all share (format): cell-based
In experiment [1] the test system is MDAMB231 cells. The experiment is described as follows: crystal violet (CV) proliferation assay, MDAMB231. The note with it: Homo sapiens, MDA-MB-231, MDAMB231 (PKCβ1^high, Rb^positive) 2000 cells. As for the experimental part:
(§1) Cell proliferation rates were determined using crystal violet assays. One thousand cells per well were plated in 96 well tissue culture plates and treated the following day with a bifunctional compound or control for 7 days in replicates of 8. Cells were fixed with 25% glutaraldehyde for 10 minutes with shaking, washed 5 times with distilled water, stained with a 1% crystal violet solution (solubilized in 25% methanol) for 10 minutes, washed again 5 times and allowed to dry. De-staining was performed using […] sodium citrate in 50% ethanol followed by quantification using a 96 well spectrophotometer set at an absorbance of 550 nm.

Experiment [2] concerns BT549 cells. Nature of the experiment: crystal violet (CV) proliferation assay, BT549. The note with it: Homo sapiens, BT-549, BT549 (PKCβ1^high, Rb^regative) 2000 cells. As for the experimental part:
as §1

Experiment [3] deals with MDAMB436 cells. Nature of the experiment: crystal violet (CV) proliferation assay, MDAMB436. The note with it: Homo sapiens, MDA-MB-436, MDAMB436 (PKCβ1^low, Rb^negative) 2000 cells. How it is done: as §1
Experiment [4] relates to MDAH-2774 cells. The experiment is described as follows: crystal violet (CV) proliferation assay, MDAH-2774. To be noted: Homo sapiens; MDAH-2774 (PKCβ1^high) 1000 cells/well; read-out: Approximate IC50. How it is done:
as §1
(§2) Based on the potent anti-proliferative activity of ENDX-PROTACs TC-Pr-006, TC-Pr-007, TC-Pr -008, and TC-Pr -009 in TNBC cells, the efficacy of these compounds for inhibiting the growth of ovarian cancer cells was tested. This analysis utilized KURAMOCHI cells, which represent the high-grade serous subtype (the most malignant form that accounts for 70% of all ovarian cancers and associates with poor clinical outcome) and MDAH-2774 cells, which represent endometrioid ovarian cancer and accounts for 20% of all ovarian cancer. PKCβ1 was confirmed to be expressed in both ovarian cancer cell line models, with MDAH-2774 cells expressing higher amounts of PKCβ1 compared to KURAMOCHI cells (FIG. 5A). […]

The subject of experiment [5] is KURAMOCHI cells. The experiment is described as follows: crystal violet (CV) proliferation assay, KURAMOCHI
To be noted: KURAMOSHI (PKCβ1^low) 1000 cells/well; read-out: Approximate IC50. How it is done:
as §1, §2

Consider `CC/C(=C(\c1ccc(O)cc1)c1ccc(OCCNC)cc1)c1ccccc1` [ENDX, endoxifen, reference compound], for which the IC50 in experiment [1] is > 5 µM; in experiment [2] it was > 5 µM; in experiment [3], > 5 µM; in experiment [4], > 10 µM; in experiment [5], > 10 µM.
